According to PubChem BioAssay (NCI):
Several values for one entry are separate records, joined by “and”; a condition that tells them apart may be missing. Identical values can stand only once.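 Step 1: Grow cells in 96-well plates. Step 2: Expose to compound for 48 hours at 5 concentrations. Step 3: Interpolate endpoints linearly; if unreached, use highest concentration. GI50 is the concentration that inhibits growth by half. TGI is the concentration that stops growth completely.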

How the values were obtained:
Experiment in all cases: NCI-60 cell line screen, 48 h
A549 NSCLC = system: A549 NSCLC
BT-549 breast = system: BT-549 breast
M14 melanoma = system: M14 melanoma
MDA-MB-435 = system: MDA-MB-435
NCI-H460 lung = system: NCI-H460 lung
OVCAR-4 ovarian = system: OVCAR-4 ovarian
SF-268 CNS = system: SF-268 CNS
SNB-19 CNS = system: SNB-19 CNS
U251 CNS = system: U251 CNS
UACC-257 melanoma = system: UACC-257 melanoma

Compound	GI50 (A549 NSCLC)	TGI (A549 NSCLC)	GI50 (BT-549 breast)	TGI (BT-549 breast)	GI50 (M14 melanoma) [µM]	TGI (M14 melanoma) [µM]	GI50 (MDA-MB-435) [µM]	TGI (MDA-MB-435)	GI50 (NCI-H460 lung)	TGI (NCI-H460 lung)	GI50 (OVCAR-4 ovarian)	TGI (OVCAR-4 ovarian)	GI50 (SF-268 CNS) [µM]	TGI (SF-268 CNS)	GI50 (SNB-19 CNS) [µM]	TGI (SNB-19 CNS)	GI50 (U251 CNS)	TGI (U251 CNS)	GI50 (UACC-257 melanoma)	TGI (UACC-257 melanoma)
C#CC1(O)C(COP(=O)(O)OC2CC(n3cc(F)c(=O)[nH]c3=O)OC2CO)OC(n2ccc(N)nc2=O)C1O (stereo not drawn)	< 0.01 µM	> 54.4 µM	< 0.0157 µM	0.909 µM	< 0.0211	0.774	< 0.0176	0.545 µM	< 0.01 µM	> 32.1 µM	0.143 µM	8.49 µM	< 0.01	13.5 µM	< 0.0205	> 100 µM	< 0.0138 µM	> 100 µM	0.0663 µM	2.18 µM
NC(=O)c1cc(Br)cc(C2CCCCC2)c1O	13.4 µM	27.1 µM	13.6 µM	26.4 µM	12.8	25.6	14.7	28.8 µM	15.6 µM	30.5 µM	12.9 µM	25.6 µM	11.4	25 µM	13.8	27.9 µM	10.8 µM	23 µM	16.3 µM	30.1 µM
COc1ccc2c(Nc3ccc(NS(C)(=O)=O)cc3)c3ccccc3nc2c1	0.151 µM	2.7 µM	1.5 µM	3.67 µM	0.599	2.03	0.817	2.4 µM	0.0618 µM	1.11 µM	1.23 µM	4.13 µM	0.469	4.03 µM	0.445	11.4 µM	0.475 µM	9.02 µM	0.628 µM	2.17 µM
CC1=C[C@H]2c3c(c(O)c(O)c4oc5ccccc5c(=O)c34)[C@H](c3cc(O)c(O)c4oc5ccccc5c(=O)c34)[C@H]2C(C)(C)C1	0.276 µM	4.91 µM	1.92 µM	6.69 µM	1.36	5.66	0.839	4.42 µM	0.22 µM	1.83 µM	0.786 µM	20.2 µM	1.14	16.4 µM	1.17	14.1 µM	0.728 µM	14 µM	2.65 µM	18.1 µM
CCN1C(=S)N(CC)C2C1NC(=S)N2/N=C/C=C/c1ccccc1 (stereo not drawn)	2.52 µM	17.8 µM	5.44 µM	21.7 µM	0.879	12.9	0.272	0.856 µM	1.79 µM	12.7 µM	5.4 µM	19.6 µM	5.51	27.2 µM	2.8	20.2 µM	2.31 µM	13 µM	3.68 µM	19.5 µM
O=[N+]([O-])c1ccc(N/N=C/c2c(O)ccc3ccccc23)nc1	27.7 µM	> 100 µM	39.8 µM	> 100 µM	16.4	> 100	55.2	> 100 µM	3.3 µM	> 100 µM	0.783 µM	> 100 µM	4	> 100 µM	> 100	> 100 µM	5.01 µM	> 100 µM	8.75 µM	> 100 µM
COc1ccc(/C=C/c2nc(NCCCN(C)C)c3ccccc3n2)cc1	2.62 µM	7.65 µM	1.55 µM	5.01 µM	2.16	4.81	1.81	3.65 µM	2.19 µM	4.7 µM	2.07 µM	5.58 µM	1.86	4.17 µM	4.31	9.67 µM	1.79 µM	3.37 µM	1.87 µM	3.65 µM
CCOc1cc2c(NCCCN(CCO)CCO)ncnc2c(OCC)c1OCC		> 100 µM		> 100 µM		> 100		> 100 µM		> 100 µM		> 100 µM		> 100 µM		> 100 µM		> 100 µM		> 100 µM
CC(C)(C)NCc1cc(C(C)(C)C)cc(-c2ccc(Cl)cc2)c1O		32.4 µM		27.9 µM		28.8		25.2 µM		34.8 µM		41.3 µM		30.8 µM		30.5 µM		24.1 µM		50.3 µM
Cn1ncc2c(N)nc(N3CCCCC3)nc21	66.1 µM	> 100 µM	31.9 µM	> 100 µM	42.6	> 100	24.1	81.4 µM	42.5 µM	> 100 µM	27.2 µM	> 100 µM	29.6	69.2 µM	22.5	> 100 µM	30.7 µM	> 100 µM	54.4 µM	> 100 µM
Cc1sc(C)c(Cc2c(C)sc(C)c2CCl)c1CCl	> 100 µM	> 100 µM	> 100 µM	> 100 µM	> 100	> 100	> 100	> 100 µM	> 100 µM	> 100 µM	> 100 µM	> 100 µM	> 100	> 100 µM	> 100	> 100 µM	> 100 µM	> 100 µM	> 100 µM	> 100 µM
Nc1ccc2c(c1)NCCN2		> 100 µM		> 100 µM		> 100		> 100 µM		> 100 µM		> 100 µM		> 100 µM		> 100 µM		> 100 µM		> 100 µM
CCOC(=O)C(Cc1c[nH]c2ccc(N(CCCl)CCCl)cc12)(NC(C)=O)C(=O)OCC	1.8 µM and 1.04 µM	25.1 µM and 63.9 µM	16.3 µM and 12.2 µM	39.3 µM and 50.2 µM	12.3	116	16.9	33.1 µM	1.82 µM and 0.765 µM	17.7 µM and 132 µM	53 µM and 47.8 µM	682 µM	5.21	46.5 µM	19.6	312 µM	10.6 µM and 7.88 µM	35.4 µM and 35.3 µM	17.6 µM and 23.9 µM	52.6 µM and 94 µM
C=C1C(=O)OC2CC1C(O)C/C(C)=C/CC/C(C)=C/C(O)CC2C (stereo not drawn)		28.1 µM		6.45 µM		9.63		13.4 µM		10.8 µM		11.5 µM		8.66 µM		18.9 µM		16.8 µM		10.3 µM
CC[C@@]1(O)C(=O)NCc2c1cc1n(c2=O)Cc2cc3c(N)cccc3nc2-1	2.5 µM	> 69 µM	17.8 µM	> 100 µM	0.685	> 65.8	4.8	18.5 µM	0.305 µM	27.8 µM	11.4 µM	> 41.5 µM	0.558		2.93	> 50.7 µM	2 µM	> 46.8 µM	6.15 µM	> 79.5 µM
COc1ccccc1NC(=O)n1nc(N)c2ccccc21	> 86.9 µM	> 100 µM	39.3 µM	> 100 µM	> 100	> 100	> 100	> 100 µM	47.6 µM	> 100 µM	> 68.1 µM	> 100 µM	> 48.1	> 100 µM	> 100	> 100 µM	74.1 µM	> 100 µM	> 100 µM	> 100 µM
COc1cc2c3c(c1)c1cc(OC)c(OC)cc1c[n+]3CC2	76.7 µM	> 100 µM	7.23 µM	22.7 µM and 55.2 µM	63.8	> 100	44.2	50 µM and > 100 µM		47.8 µM	18.2 µM	50 µM and > 100 µM	0.351	3.3 µM and 3.8 µM	1.94	50 µM and > 100 µM	1.28 µM	50 µM and 25.9 µM	15.9 µM	50 µM and 64.7 µM
CCOC(=O)C(=Cc1ccccc1[N+](=O)[O-])C(=O)OCC	4.05 µM	17.5 µM	5.28 µM	17.3 µM	2.95	10.1	3.08	12.1 µM	3.25 µM	10.8 µM	4.68 µM	18.1 µM	3.35	11.5 µM	4.27	16.4 µM	3.65 µM	13.1 µM	3.25 µM	14.3 µM
N#Cc1c(-c2ccccc2)cc(-c2ccc(Nc3nc(Nc4ccc(Cl)cc4)nc(Nc4ccc(Cl)cc4)n3)cc2)nc1N	11 µM	> 100 µM	5.2 µM	24.2 µM	1.79	3.67	2.8	14.1 µM	3.47 µM	15.8 µM	4.06 µM	> 100 µM	4.33	19.7 µM	29.7	> 100 µM	2.63 µM	10.2 µM	1.92 µM	4.47 µM
